We go through four molecules from US10450293B2, “Chemokine CXCR4 and CCR5 receptor modulators and uses related thereto” (Emory University, priority 2014, dated 2019).

The test system of data set [1] is HIV-1 Ba-L. Description: HIV-1 MAGI assay, Ba-L (CCR5 / M-tropic). Format: cell-based. As for the experimental part:
(§1) Bayesian statistical models were constructed using known CXCR4 and CCR5 active compounds from literature, and these models were used to virtually screen 5 million compounds in the Aldrich Marketplace Select library. The screen yielded 14 compounds of interest that were then tested for their anti-HIV activity for both tropisms in MAGI assay. Two compounds (FIG. 1, compounds 1 and 2) were active against both T and M tropic forms of HIV with IC50 values of ˜20 μM. These initial hits were followed-up by a second round of virtual screening based on similarity and sub-structure searching. Another 24 compounds were purchased from the same database and tested. […] This compound was then subjected to a series of biological evaluations to determine activity profile and confirm mechanism of action.

The test system of another data set is wild type virus. The data set can be described thus: organism not typed. Format: cell-based. The settings on record: read-out: Multi-cycle EC50 (WT).
Data set [2] relates to HIV-1 IIIB. Description: PBMC anti-HIV-1 assay, IIIB (CXCR4). It is filed as cell-based. As to conditions: Human immunodeficiency virus 1, IIIB, read-out: PBMC - HIV-1HIB (CXCR4) IC50.
The subject of data set [3] is HIV-1 IIIB. Description: HIV-1 MAGI assay, IIIB (CXCR4 / T-tropic). It is filed as cell-based. As for the experimental part: as §1
The nature of a further data set: MAGI toxicity. As to conditions: human, MAGI cells.
Another data set in a line: PBMC toxicity. Format: cell-based. As to conditions: read-out: PBMC - Toxicity TC50.
The nature of the next data set: in vitro. It is filed as cell-based. The settings on record: human.
In a further data set the test system is VSV-G pseudovirus. The data set can be described thus: microbe, parasite or virus in culture. Format: cell-based.
For data set [4], the system named is HIV-1 Ba-L. The data set can be described thus: PBMC anti-HIV-1 assay, Ba-L (CCR5). As to conditions: Human immunodeficiency virus 1, BAL. It is filed as cell-based.
For data set [5], the system named is HIV-2 strain that utilized CXCR4 for entry. Description: PBMC HIV-2 inhibition assay. Format: cell-based. An excerpt: Compounds 4 inhibited this HIV-2 strain in PBMC cells in support of the CXCR4-based viral entry inhibition mechanism.
In data set [6] the target is T1, HIV-1 reverse transcriptase (Human immunodeficiency virus type 1 group M subtype B, UniProt P03366). The data set can be described thus: biochemical. Format: biochemical.
In data set [7] the target is T2, CCR5 (Homo sapiens, UniProt P51681).
T2 construct: expressed in transfected cells; host or cells: HeLa-C14
T2 sequence (P51681 whole entry): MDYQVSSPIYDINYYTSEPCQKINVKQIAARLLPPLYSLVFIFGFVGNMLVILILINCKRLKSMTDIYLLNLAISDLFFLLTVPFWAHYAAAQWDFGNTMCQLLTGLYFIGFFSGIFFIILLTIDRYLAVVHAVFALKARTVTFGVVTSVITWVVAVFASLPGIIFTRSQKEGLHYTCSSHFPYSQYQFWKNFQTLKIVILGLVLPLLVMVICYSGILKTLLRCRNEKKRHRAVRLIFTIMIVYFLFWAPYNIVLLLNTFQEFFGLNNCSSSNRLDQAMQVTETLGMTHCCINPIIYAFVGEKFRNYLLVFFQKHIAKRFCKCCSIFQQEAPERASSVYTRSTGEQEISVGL
The data set can be described thus: 125I-MIP-1β displacement radio-ligand competition assay. It is filed as binding.

The target in data set [8] is T2, CCR5. The data set can be described thus: HeLa-C14:JRFL CD4-dependent cell-cell fusion assay. It is filed as cell-based. An excerpt: Cell-cell fusion assays measure specifically co-receptor mediated inhibition of gp120-induced fusion in the absence of other viral machinery, and these assays were used to explore the CCR5- and CXCR4-specific antiviral activity. A cell-cell fusion assay was constructed to simulate HIV-1 entry in the absence of other viral machinery. The assay measured fusion of effector cells expressing the JRFL envelope (CCR5-tropic/CD4 dependent) with HeLa-C14 target cells (expressing CD4, CCR5, and CXCR4) using a luciferase readout (FIG. 5A).

Data set [9] concerns NNRTI-resistant viral strain containing the K103N/Y181C mutations. Format: cell-based.
In another data set the target is CXCR4 (Homo sapiens, UniProt P61073). Description: STD-NMR binding epitope study, CXCR4 in CHO membrane extracts. The settings on record: 1 mM compound, 30% CXCR4-expressing CHO membrane extracts. As to the method:
(§2) Saturation Transfer Difference Spectroscopy (STD) was used to study the interactions between m7CCR5, HIV-1 reverse transcriptase, CXCR4, and compound 2 disclosed herein. Brandt et al., J Biol Chem. 2002, 277(19):17291-9. […] An on-resonance spectrum is recorded where m7CCR5 is selectively saturated giving rise to compound signals intensities.
(§3) The difference of off-resonance from the on-resonance spectrum results in the STD spectrum indicating proton that are in close contact to the protein surface. Non-binding protons cancelled out. The signal intensities can be quantified indicating the relative distance of the proton. Normalizing the measured STD intensities against the most intense can be expressed as percentages.
STD binding epitope studes of compound 2 interacting with CXCR4 obtained from Chinese Hamster Ovary (CHO) membrane extracts as shown in FIG. 2C.

The test system of a further data set is m7CCR5. Description: STD-NMR binding epitope study, m7CCR5. The settings on record: 1 mM compound, 10 μM m7CCR5. As to the method: as §2, §3
STD binding epitope studies of compound 2 interacting with m7CCR5 (isolated, bacterially-expressed CCR5 construct) is shown in FIG. 2B. […] 100 mM HEPES, 150 mM NaCl, pH=7) in the absence of protein. c) STD NMR spectrum of 1 mM compound 2 in the presence of 10 μM m7CCR5 resolubilized in DDM/DOPC bicelle buffer. d) STDD spectrum of compound 2 binding to m7CCR5 obtained by subtracting (b) from (c). e) STDD binding epitope of compound 2 complexed to m7CCR5 obtained by integrating signals from (d).

Data set [10] concerns the target T1, HIV-1 reverse transcriptase. The data set can be described thus: STD-NMR binding epitope study, HIV-1 reverse transcriptase. The settings on record: 1 mM compound, 30 ng/ml HIV reverse transcriptase. As for the experimental part:
as §2, §3
Spectra were collected on a 600 MHz Varian equipped with a triple-resonance cryoprobe, and STD spectra were collected with 512 scans at an on-resonance frequency of +0.5 ppm. Panel a) is a ^1H NMR spectrum of compound 2 in 100% deuterated phosphate buffered saline (PBS, pH=7.4). b) STD NMR spectrum of compound 2 in PBS in the absence of protein. c) STD NMR spectrum of 1 mM compound 2 in the presence of 30 ng/ml HIV reverse transcriptase (CalBioChem). d) Binding epitope of compound 2 binding to HIV-RT obtained by integrating the signals from (c).

Where [11] appears, read: Human immunodeficiency virus 1, BAL, MAGI, value stated for both tropisms, read-out: IC50 against M tropic HIV in MAGI assay.
Where [12] appears, read: Human immunodeficiency virus 1, IIIB, MAGI, value stated for both tropisms, read-out: IC50 against T tropic HIV in MAGI assay.

A value given as a limit tells only on which side of the number the result lay.

Chain of CXCR4 (P61073 whole entry): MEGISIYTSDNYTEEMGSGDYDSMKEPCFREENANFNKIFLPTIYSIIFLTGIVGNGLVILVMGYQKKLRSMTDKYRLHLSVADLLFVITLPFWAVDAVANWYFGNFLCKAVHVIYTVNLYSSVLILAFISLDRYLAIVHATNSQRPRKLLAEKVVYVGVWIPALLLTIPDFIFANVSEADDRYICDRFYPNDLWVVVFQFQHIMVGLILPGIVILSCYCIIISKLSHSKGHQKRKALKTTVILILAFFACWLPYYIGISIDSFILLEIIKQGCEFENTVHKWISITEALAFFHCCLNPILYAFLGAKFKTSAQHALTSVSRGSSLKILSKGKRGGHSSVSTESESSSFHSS

Usually IC50 stands for the concentration at which inhibition is half-maximal. In general, EC50 refers to the concentration needed to bring the measured effect to its halfway point. In the case of `c1ccc(Cc2cn[nH]c2C2CCN(Cc3ccncc3)CC2)cc1` [Compound 4, 4-((4-(4-benzyl-1H-pyrazol-3-yl)piperidin-1-yl)methyl)pyridine], the IC50 with HIV-1 Ba-L [1] (Ba-L, M-tropic, read-out: HIV-1 MAGI IC50 Ba-L) was 17 µM; in the data set with HIV-1 Ba-L [1] (setting [11]), 0.8 to 3.8 µM; with HIV-1 Ba-L [1] (Human immunodeficiency virus 1, BAL, Table 3, read-out: MAGI Assay IC50 CCR5) it was 3.8 µM; in the data set on HIV-1 Ba-L [1] (Human immunodeficiency virus 1, BAL, read-out: MAGI - HIV-1Ba-L (CCR5) IC50) it was 3.8 µM; with HIV-1 Ba-L [1] (Human immunodeficiency virus 1, BAL, table of synthesized compounds, read-out: R5-IC50) it was 3.75 µM; in the data set on HIV-1 IIIB [2], 2.3 µM. Besides, the IC50 in the data set with HIV-1 IIIB [3] (Human immunodeficiency virus 1, IIIB, MAGI, Table 3, read-out: MAGI Assay IC50 CXCR4) was 0.8 µM; with HIV-1 IIIB [3] (Human immunodeficiency virus 1, IIIB, MAGI, read-out: MAGI - HIV-1HIB (CXCR4) IC50) it was 0.8 µM; with HIV-1 IIIB [3] (Human immunodeficiency virus 1, IIIB, MAGI, table of synthesized compounds, read-out: X4-IC50) it was 0.78 µM; in the data set with HIV-1 IIIB [3] (setting [12]) it was 0.8 to 3.8 µM; in the data set on HIV-1 IIIB [3] (IIIB, T-tropic, read-out: HIV-1 MAGI IC50 IIIB) it was 25 µM; in the data set on HIV-1 Ba-L [4], 2.3 µM. Also, the IC50 was 31 µM in data set [5] (Human immunodeficiency virus 2, PBMC); 9 µM in data set [6] (read-out: Isolated HIV-RT Inhibition IC50); 36 µM against CCR5 [8]. Moreover, the EC50 in the data set with wild type virus came out at 0.9 µM; with VSV-G pseudovirus (Pseudovirus), 1.3 µM. For the same molecule, the CC50 in the data set “MAGI toxicity” (MAGI -Toxicity TC50) was more than 300 µM; in “MAGI toxicity” (TC50, table of synthesized compounds) it was more than 100 µM; in “PBMC toxicity” it was more than 100 µM; in the data set “in vitro”, more than 200 µM. Moreover, the “inhibition of VSV-G pseudovirus” value in the data set with VSV-G pseudovirus (in words) is “inhibited”. The “inhibition of HIV-2 strain in PBMC cells” value in data set [5] (in words) is given as “inhibited”. In addition, the “inhibition of isolated HIV-1 reverse transcriptase” value in [6] (in words) is “inhibited”. The “125I-MIP-1β Displacement” value was 38% at 100 μM/ at CCR5 [7] (at 100 μM) and 88% at 1 mM on CCR5 [7] (at 1 mM). In addition, the “displacement of 125I-MIP1β chemokine ligand from the receptor” value at CCR5 [7] (in words) is given as “displaced”. The “inhibition of JRFL envelope / HeLa-C14 cell-cell fusion” value against CCR5 [8] (luciferase readout, in words) was “inhibited fusion”.
In the case of `O=C1Nc2ccc(Cl)cc2[C@@](C#CC2CC2)(C(F)(F)F)O1` [efavirenz], in [9], the “loss of antiviral activity against K103N/Y181C mutant compared to wild type” value is listed as 70 fold.
On to `c1ccc(Cc2c[nH]nc2C2CCN(Cc3ccccn3)CC2)cc1` [Compound 2], for which the half-inhibitory concentration (IC50) in the data set on HIV-1 Ba-L [1] (setting [11]) and in the data set on HIV-1 IIIB [3] (setting [12]) was approximately 20 µM throughout. The “interaction with CXCR4 (STD NMR)” value at CXCR4 is “interacts”. Besides, the “interaction with m7CCR5 (STD NMR)” value in the data set with m7CCR5 is given as “interacts”. Besides, the “interaction with HIV-1 reverse transcriptase (STD NMR)” value in data set [10] is “interacts”.
For “4-((4-(4-benzyl-5-methyl-1H-pyrazol-3-yl)piperidin-1-yl)methyl)-3-chloropyridine”, the IC50 with HIV-1 Ba-L [1] (table of synthesized compounds, read-out: R5-IC50) stood at 4.2 µM; with HIV-1 IIIB [3] (table of synthesized compounds, read-out: X4-IC50), 3.1 µM. This molecule returned a CC50 with MAGI of 164 µM.
